This is an account of results in patent US10344330B2, “Glatiramer acetate response biomarker mRNA potency assay” (Mylan Inc., priority 2013, dated 2019).

Test [1] has as its system IL-10 secreted by LN cells. The test can be described thus: IL-10 secretion by GA-stimulated LN cells, MSD 9-plex ELISA (Example II). In kind it is cell-based, mouse. The following applies: for IL-10 secretion response ratio (treated cell medium to control DCCM1 medium): 21 hr. The method, then:
Animals at 8 weeks of age were immunized by injection into four footpads using a 1 mL syringe with a 27-G, 1⁄2-inch needle. […] Ten days post-immunization, immunized animals were sacrificed via cervical dislocation. […] The LN cells were isolated by pressing the LN with the plunger end of a sterile syringe. […] Trypan blue exclusion method was used to determine the cell density of viable cells in the suspension. […] Cat. […] LN cells were plated into a 24-well tissue culture plate for drug stimulation. […] Cell debris was removed by centrifugation at ca. 200×g for 10 minutes at 4° C. Cytokines secreted by treated cells were determined on the day of collection by ELISA using mouse TH 1/TH 2 9-Plex Tissue Culture Kit (Meso Scale Discovery; Cat No. […]-2, Lot #: K0032839) which detects Th1 cytokines (IFN-γ, IL-2, IL-12, IL-1β, TNF-α, CXCL1) and Th2 cytokines (IL-4, IL-5 and IL-10). For IFN-γ, culture media also were assayed at 45 hours using mouse IFN-γ Tissue Culture Kit (Meso Scale Discovery; Cat No. […] For the positive control, 0.5 mL of LN cells (5×10^6 cells/well) were treated with 0.5 mL of ConA (5 μg/mL). For the negative control, 0.5 mL of LN cells (5×10^6 cells/well) were treated with 0.5 mL of MBP (20 μg/mL). The LN cells with mock stimulation (enriched DCCM1 medium) were used to monitor the background level of a cytokine. For the cytokine assays, calibration standards or samples were incubated in the MULTI-SPOT or the SINGLE-SPOT plate and each cytokine bound to its corresponding capture antibody. All test samples were run in duplicate. The amount of each cytokine on its distinct spot was quantified using a cytokine-specific detection antibody labeled with MSD SULFO-TAGTM reagent. Electrochemiluminescent signals from immobilized SULFO-TAGTM-labeled complexes on each spot from each well were captured by the MSD SECTOR Imager 6000, which produces a signal directly proportional to the amount of captured cytokine in a test sample. The levels of cytokines in test samples were derived by interpolation from calibration curves with calibration standards of known concentrations using reagents provided with the MSD kits. Kits were used according to the manufacturer's protocols. […] Data are expressed as a response ratio of cytokine concentration in treated cell medium to control DCCM1 medium.

In test [2] the test system is mouse IFN-γ mRNA in primary LN cells. As to the kind of experiment: Validation: mouse IFN-γ mRNA by real-time PCR in LN cells of GA-immunized SJL/J mice (Example IV). The following applies: for IFN-γ mRNA Fold Change: normalized to GAPDH. The class given is cell-based. The method, then: Three experiments were conducted using one batch of GA (Mylan GMA). The primary LN cells were stimulated by incubation with 6 concentrations (0.3 to 20 μg/mL) of the GA for 6 hours at 37° C. Total RNA was isolated from LN cells stimulated with GA or controls. cDNA was synthesized from the RNA and the mRNA levels of seven mouse cytokines, IL-2, IL-4, IL-5, IL-10, IL-13, interferon (IFN)-γ and tumor necrosis factor (TNF)-α, were quantitatively measured by a real-time PCR method.
Female SJL/J mice at 8-9 weeks of age were immunized by injection into four footpads using a 1 mL syringe with a 27-G, ½-inch needle. Each mouse received a total injection volume of 0.1 mL of GMA emulsified in CFA (about 10 μL into each of the front footpads and 40 μL into each of the hind footpads). Animals were immunized on Day 0. After injection, animals were placed back in their cages and housed ≤6 animals per cage.
Immunized animals were sacrificed by cervical dislocation on Day 10 following immunization. […] After centrifugation at about 200×g for 10 minutes at 4° C., the cell pellet was re-suspended in 40 mL of DCCM-1 medium for cell counting. A Trypan blue exclusion method was used to determine the cell density of viable cells in the suspension. After cell counting, the LN cells were suspended in enriched DCCM-1 medium at density of 7.5×10^6 cells/mL. LN cells (0.12 mL) were plated into each well of 96-well tissue culture plates.
Dilutions of GA (Mylan GMA) were prepared using enriched DCCM-1 medium as the diluent. GA dilutions (0.12 mL) were added in the assigned wells of 96-well tissue culture plates. The same volume of LN cells (0.12 mL) isolated from immunized animals was added to the assigned wells. A positive control and a negative control were always performed in the same assay by treating LN cells with 2.5 μg/mL ConA and 10 μg/mL MBP, respectively. The LN cells with mock stimulation protocols (enriched DCCM-1 medium) were used to monitor the background mRNA level of a cytokine. The plates were incubated at 37° C. in a humidified 5% CO2 incubator for 6 hr.
At the end of incubation time, culture medium from stimulated cells was removed by aspiration and the cells were lysed using Qiagen or Promega lysis buffer. The lysate was transferred to an RNeasy Mini column (Qiagen) or wells of the SV 96 Binding Plate (Promega) for RNA isolation and cDNA synthesis. All tested samples were run in triplicate.
The SV 96 Total RNA Isolation System (Promega; Cat. No. Z3505) was used for total RNA isolation. Assay procedures were carried out according to each manufacturer's protocol. RNA samples were stored at −70° C. until use. […] The assay procedure was carried out according to the manufacturer's protocol.
The plate was centrifuged at 2000 rpm for 2 minutes at 4° C. to spin down the contents and eliminate air bubbles. Samples were prepared and run in a 96-well plate using a Life Technologies Real-Time PCR system (previously Applied Biosystems; Model No. 7500) according to the manufacturer's recommendation. The mix for the reference gene was prepared in the same way using the reference gene primer.
A relative quantitation method was used to analyze changes in mIL-2, mIL-4, mIL-5, mIL-10, mIL-13, mIFN-γ and TNF-α expression in GA treated samples relative to the untreated control (Enriched DCCM-1 treated) samples using the following program:
Levels of mouse cytokine amplicons were normalized to an internal probe level (GAPDH) from the same samples. The following equations were used to calculate the relative increase in response to GA stimulation compared to the control sample (Enriched DCCM1 sample): […]

The mark [3] stands for this setting: BALB/cByJ, immunized GA Intraplantar.
The mark [4] stands for this setting: BALB/cByJ, immunized GA Lower Limb.
Setting [5] is: BALB/cByJ, immunized Mannitol Intraplantar.
Setting [6] is: C57BL10J, immunized GA Intraplantar.
Where [7] appears, read: C57BL10J, immunized GA Lower Limb.
[8] abbreviates: C57BL10J, immunized Mannitol Intraplantar.
[9] abbreviates: CD-1, immunized GA Intraplantar.
Where [10] appears, read: CD-1, immunized Mannitol Intraplantar.

On to “Concanavalin A [ConA, reference compound]”, for which the “IL-10 secretion response ratio (treated cell medium to control DCCM1 medium)” value (“IL-10 secretion response ratio” below) stood at 23.65 in test [1] (setting [3]); 18.32 in test [1] (setting [4]); 21.86 in test [1] (setting [5]); 1.62 in test [1] (setting [6]); 1.50 in test [1] (setting [7]); 1.04 in test [1] (setting [8]). Moreover, the “IL-10 secretion response ratio” value in test [1] (setting [9]) amounted to 13.70; in test [1] (CD-1, immunized GA Lower Limb), 8.64; in test [1] (setting [10]) it was 10.96. Besides, the “IFN-γ mRNA Fold Change” value worked out at 1.9 fold in test [2] (Experiment 1, 2.5 μg/mL); 1.6 fold in test [2] (Experiment 2, 2.5 μg/mL); 2.6 fold in test [2] (Experiment 3, 2.5 μg/mL).

For the molecule “L-glutamic acid polymer with L-alanine, L-lysine and L-tyrosine, acetate (salt) [GA]”, the “IL-10 secretion, dose response to GA (in words)” value in test [1] (BALB/cByJ cells and CD1 cells) was “dose-dependent manner”. In addition, in test [2] (SJL/J, different concentrations of GA vs unstimulated LN cells), the “induction of IFN-γ mRNA (in words)” value is “weak induction”. Also, in test [2] (SJL/J, stimulation with 2.5 to 10 μg/mL GA, three experiments), the “induction of IFN-γ mRNA” value is on record as not below 2 fold.

B1: MBP: myelin basic protein, a negative control (protein, UniProt P02686 1-304, looked up)
Myelin basic protein: MGNHAGKRELNAEKASTNSETNRGESEKKRNLGELSRTTSEDNEVFGEADANQNNGTSSQDTAVTDSKRTADPKNAWQDAHPADPGSRPHLIRLFSRDAPGREDNTFKDRPSESDELQTIQEDSAATSESLDVMASQKRPSQRHGSKYLATASTMDHARHGFLPRHRDTGILDSIGRFFGGDRGAPKRGSGKDSHHPARTAHYGSLPQKSHGRTQDENPVVHFFKNIVTPRTPPPSQGKGRGLSLSRFSWGAEGQRPGFGYGGRASDYKSAHKGFKGVDAQGTLSKIFKLGGRDSRSGSPMARR
In the case of B1, the “IL-10 secretion response ratio” value was 1.10 in test [1] (setting [3]); 1.12 in test [1] (setting [4]); 1.07 in test [1] (setting [5]); 1.04 in test [1] (setting [6]); 1.00 in test [1] (setting [7]); 1.08 in test [1] (setting [8]). Also, the “IL-10 secretion response ratio” value in test [1] (setting [9]) amounted to 1.39; in test [1] (CD-1, immunized GA Lower Limb), 1.41; in test [1] (setting [10]), 1.38. For the same molecule, the “IFN-γ mRNA Fold Change” value in test [2] (Experiment 1, 10 μg/mL) is 0.8 fold; in test [2] (Experiment 2, 10 μg/mL), 1.3 fold; in test [2] (Experiment 3, 10 μg/mL), 1.1 fold. In test [2] (SJL/J, MBP 10 μg/mL, all PCR runs), the “IFN-γ mRNA expression level in response to MBP treatment” value is given as not above 2 fold.
